Where a name gives a salt, the structure may show the parent alone. Read-outs that look alike come from different tables or passages of the source.
Columns and labels:
[1] = In vivo inactivation of glutaminyl thiazolidine after oral administration to Wistar rats; conditions: plasma LC/MS
Method: Glutaminyl thiazolidine was administered to Wistar rats orally as described in example 9.
After application of placebo or glutaminyl thiazolidine, arterial blood samples were taken at 2.5, 5, 7.5, 10, 15, 20, 40, 60 and 120 min from the carotid catheter of the conscious unrestrained rats to determine the formation of degradation products of glutaminyl thiazolidine.
For analysis, simple solid phase extraction procedure on C18 cartridges was used to isolate the compounds of interest from the plasma. The extracts were analysed using reversed-phase liquid chromatography on Lichrospher 60 RP Select B column hyphenated with tandem mass spectrometry operating in the APCI positive mode. An internal standard method was used for quantification.

[2] = molecular target: T1, Prolidase from porcine kidney (Sus scrofa, UniProt A0A5G2QQV1); experiment: Cross reacting enzymes - prolidase; assay type: biochemical; conditions: substrate Ile-Pro-OH, pH 7.6, read-out: IC50 against prolidase
T1 construct: Prolidase from porcine kidney (ICN Biomedicals, Eschwege, Germany); purchased ICN Biomedicals, Eschwege, Germany; host or cells: porcine kidney
T1 sequence (A0A5G2QQV1 1-463): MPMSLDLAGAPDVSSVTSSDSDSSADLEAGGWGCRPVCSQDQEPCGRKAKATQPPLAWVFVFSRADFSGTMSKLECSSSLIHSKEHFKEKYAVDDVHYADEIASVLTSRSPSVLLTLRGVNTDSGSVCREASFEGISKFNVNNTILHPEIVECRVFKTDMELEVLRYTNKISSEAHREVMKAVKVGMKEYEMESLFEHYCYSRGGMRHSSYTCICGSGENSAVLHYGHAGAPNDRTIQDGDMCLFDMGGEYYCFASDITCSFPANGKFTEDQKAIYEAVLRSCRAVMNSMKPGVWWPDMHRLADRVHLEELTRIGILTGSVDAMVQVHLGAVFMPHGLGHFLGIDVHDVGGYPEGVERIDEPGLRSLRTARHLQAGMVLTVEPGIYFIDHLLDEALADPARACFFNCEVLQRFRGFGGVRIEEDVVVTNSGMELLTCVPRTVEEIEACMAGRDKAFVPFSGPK
Method: Prolidase (EC 3.4.13.9) was first described by Bergmann & Fruton (Bergmann, M. & Fruton, J S, 1937, J. Biol. Chem. 189-202). Prolidase releases the N-terminal amino acid from Xaa-Pro dipeptides and has a pH optimum between 6 and 9.
Prolidase from porcine kidney (ICN Biomedicals, Eschwege, Germany) was solved (1 mg/ml) in assay buffer (20 mM NH4(CH3COO)2, 3 mM MnCl2, pH 7.6). In order to get a fully active enzyme the solution was incubated for 60 min at room temperature.
450 μl glutaminyl pyrrolidine or glutaminyl thiazolidine in an concentration range of 5*10^−3 M-5*10^−7 M were admixed with 500 μl buffer solution (20 mM NH4(CH3COO)2, pH 7.6) and 250 μl Ile-Pro-OH (0.5 mM in the assay, mixture). The assay mixture was pre-incubated at 30° C. for 5 min. After pre-incubation, 75 μl Prolidase (1:10 diluted in assay buffer) were added and measurement was performed at 30° C. and λ=220 nm for 20 min using a UV/Vis photometer, UV1 (Thermo Spectronic, Cambridge, UK).
The IC 50-values were calculated using Graphit 4.0.15 (Erithacus Software, Ltd., UK).

plasma DPIV activity = molecular target: T2, plasma DPIV activity (Rattus norvegicus, UniProt P14740); experiment: DPIV inhibiting activity after intravasal and oral administration to Wistar rats; assay type: in vivo; conditions: rat
T2 construct: from tissue; host or cells: plasma of Wistar rats
Method: Male Wistar rats (Shoe: Wist(Sho)) with a body weight ranging between 250 and 350 g were purchased from Tierzucht Schönwalde (Schönwalde, Germany).
Animals were single-caged under conventional conditions with controlled temperature (22±2° C.) on a 12/12 hours light/dark cycle (light on at 06:00 AM). Standard pelleted chow (ssniff® Soest, Germany) and tap water acidified with HCl were allowed ad libitum.
After ≧one week of adaptation at the housing conditions, catheters were implanted into the carotid artery of Wistar rats under general anaesthesia (i.p. injection of 0.25 ml/kg b.w. Rompun® [2%], BayerVital, Germany and 0.5 ml/kg b.w. Ketamin 10, Atarost GmbH & Co., Twistringen, Germany). The animals were allowed to recover for one week. The catheters were flushed with heparin-saline (100 IU/ml) three times per week. In case of catheter dysfunction, a second catheter was inserted into the contra-lateral carotid artery of the respective rat. After one week of recovery from surgery, this animal was reintegrated into the study. In case of dysfunction of the second catheter, the animal was withdrawn from the study. A new animal was recruited and the experiments were continued in the planned sequence, beginning at least 7 days after catheter implantation.
After overnight fasting, 100 μl samples of heparinised arterial blood were collected at −30, −5, and 0 min. […] In the case of oral administration, an additional volume of 1 ml saline was injected into the arterial catheter. In the case of infra-arterial administration, the catheter was immediately flushed with 30 μl saline and an additional 1 ml of saline was given orally via the feeding tube.
All blood samples were collected into ice cooled Eppendorf tubes (Eppendorf-Netheler-Hinz, Hamburg, Germany) filled with 10 μl 1M sodium citrate buffer (pH 3.0) for plasma DPIV activity measurement. Eppendorf tubes were centrifuged immediately (12000 rpm for 2 min, Hettich Zentrifuge EBA 12, Tuttlingen; Germany): The plasma fractions were stored on ice until analysis or were frozen at −20° C. until analysis. All plasma samples were labelled with the following data:
The assay mixture for determination of plasma DPIV activity consisted of 80 μl reagent and 20 μl plasma sample. […] The DPIV activity was expressed in mU/ml.
All parameters were analysed in a descriptive manner including mean and SD.

[3] = system: fatty (fa/fa) VDF Zucker rats; experiment: Chronic oral treatment of fatty Zucker rats - systolic blood pressure (tail-cuff); assay type: in vivo, rat; conditions: 10 mg/kg oral gavage twice daily
Method: (§1) Animals were housed singly, on a 12 hour light/dark cycle (lights on at 6 am) and allowed access to standard rat food, and water ad libitum.
Systolic blood pressure was measured weekly using the tail-cuff procedure.

[4] = system: fatty (fa/fa) VDF Zucker rats; experiment: Chronic oral treatment of fatty Zucker rats - fasting blood glucose; assay type: in vivo, rat; conditions: 10 mg/kg oral gavage twice daily, 12 weeks
Method: as §1
Every two days, body weight, morning and evening blood glucose, and food and water intake were assessed. Blood samples for glucose determination were acquired from tail bleeds, and measured using a SureStep glucose analyzer (Lifescan Canada Ltd., Burnaby).
(§2) Every four weeks from the start of the experiment, an oral glucose tolerance test (OGTT) was performed: animals were fasted for 18 hours following the 1700 h dosing and administered 1 g/kg glucose orally.

F344 rats = experiment: Chronic intragastric infusion via osmotic minipumps over two weeks - blood pressure; assay type: in vivo, rat
Method: Reduced expression of the ectopeptidase DPIV and lack of DPIV-like activity in mutant F344 rats lacking DPIV enzymic activity and expression results in a lowered blood pressure. Mutant F344 substrains lacking DPIV enzymic activity and wild-type-like F344 were tested.

Circulating half-life = assay type: in vivo; conditions: 18 hours following dosing
Method: as §2

PepT1 [5] = molecular target: T3, PepT1 (Oryctolagus cuniculus, UniProt P36836); experiment: Inhibition of binding of 3H-D-Phe-Ala to PepT1-expressing P. pastoris cells; conditions: read-out: EC50: concentration inhibiting the binding of 3H-D-Phe-Ala to PepT1-expressing P. pastoris cells by 50%
T3 sequence (P36836 1-707): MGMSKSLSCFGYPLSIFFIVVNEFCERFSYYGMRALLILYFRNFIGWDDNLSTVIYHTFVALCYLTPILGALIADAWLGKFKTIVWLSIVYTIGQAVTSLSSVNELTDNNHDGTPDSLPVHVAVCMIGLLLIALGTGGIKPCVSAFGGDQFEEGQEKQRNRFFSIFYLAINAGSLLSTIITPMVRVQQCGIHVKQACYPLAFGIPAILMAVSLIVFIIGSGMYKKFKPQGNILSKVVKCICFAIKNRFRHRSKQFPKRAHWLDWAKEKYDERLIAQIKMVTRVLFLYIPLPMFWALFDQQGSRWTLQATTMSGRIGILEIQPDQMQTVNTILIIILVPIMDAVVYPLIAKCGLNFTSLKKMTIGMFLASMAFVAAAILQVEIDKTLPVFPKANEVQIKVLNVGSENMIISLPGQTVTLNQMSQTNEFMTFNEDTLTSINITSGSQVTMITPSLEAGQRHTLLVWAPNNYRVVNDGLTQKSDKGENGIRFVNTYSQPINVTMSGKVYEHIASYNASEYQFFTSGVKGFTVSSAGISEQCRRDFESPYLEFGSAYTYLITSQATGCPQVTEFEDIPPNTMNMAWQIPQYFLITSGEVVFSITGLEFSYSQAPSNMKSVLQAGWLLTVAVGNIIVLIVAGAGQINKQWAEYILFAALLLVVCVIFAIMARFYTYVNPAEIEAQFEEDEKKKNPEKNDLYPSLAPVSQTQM
Text: (§3) Side chain-modified glutamyl thiazolidines having a structure H-Glu(X)-Thia were synthesised, with polyethylene glycol or glycine oligomers of various chain lengths being used as X (see Method A of example for description of synthesis). The binding characteristics of those derivatives and their transportability by the peptide transporter PepT1 were investigated.

Wistar-rats = experiment: Insulin and blood glucose responses to glucose after i.v. administration of inhibitor; assay type: in vivo, rat
Method: The test group additionally obtained an infusion of the inhibitor of 0.75 M/min over 30 min experimental time (*). The control group received during the same time interval an infusion of inhibitor-free 0.9% saline solution. At starting time t=0 all animals were administered an i.d. glucose dose of 1 g/kg 40% dextrose solution (w/v). Blood samples were collected of all test animals in 10 min time intervals. Glucose was analyzed using whole blood (Lifescan One Touch II analyzer) while DPIV-activity and insulin concentration were analyzed in plasma. […] All data are presented as mean+/−s.e.m.

PepT1 [6] = molecular target: T3, PepT1; experiment: Transport characteristics at PepT1-expressing oocytes of X. leavis, two-electrode voltage clamp; assay type: cell-based
Text: as §3

[7] = system: DPIV and DPIV-like enzymatic activity; experiment: Inhibition of the DPIV-catalyzed hydrolysis of the incretins GIP1-42 and GLP-17-36 in vitro (pooled human serum, MALDI-TOF); assay type: biochemical; conditions: 20 mM inhibitor; 30 mM peptide; 20% pooled serum; pH 7.6; 30° C.; 24 hours
Text: It is possible to suppress the in vitro hydrolysis of incretins caused by DPIV and DPIV-like enzymatic activity using purified enzyme or pooled human serum (FIG. 1).
Samples were cocrystallized using 2′,6′-dihydroxy-acetophenon as matrix and analyzed by MALDI-TOF-mass spectrometry. Spectra (FIG. 1) display accumulations of 250 single laser shots per sample.
In the control assays containing no inhibitor the incretins were almost completely degraded (FIGS. 1b and 1c, both bottom spectra).

T2 sequence (P14740 38-767 limits assumed): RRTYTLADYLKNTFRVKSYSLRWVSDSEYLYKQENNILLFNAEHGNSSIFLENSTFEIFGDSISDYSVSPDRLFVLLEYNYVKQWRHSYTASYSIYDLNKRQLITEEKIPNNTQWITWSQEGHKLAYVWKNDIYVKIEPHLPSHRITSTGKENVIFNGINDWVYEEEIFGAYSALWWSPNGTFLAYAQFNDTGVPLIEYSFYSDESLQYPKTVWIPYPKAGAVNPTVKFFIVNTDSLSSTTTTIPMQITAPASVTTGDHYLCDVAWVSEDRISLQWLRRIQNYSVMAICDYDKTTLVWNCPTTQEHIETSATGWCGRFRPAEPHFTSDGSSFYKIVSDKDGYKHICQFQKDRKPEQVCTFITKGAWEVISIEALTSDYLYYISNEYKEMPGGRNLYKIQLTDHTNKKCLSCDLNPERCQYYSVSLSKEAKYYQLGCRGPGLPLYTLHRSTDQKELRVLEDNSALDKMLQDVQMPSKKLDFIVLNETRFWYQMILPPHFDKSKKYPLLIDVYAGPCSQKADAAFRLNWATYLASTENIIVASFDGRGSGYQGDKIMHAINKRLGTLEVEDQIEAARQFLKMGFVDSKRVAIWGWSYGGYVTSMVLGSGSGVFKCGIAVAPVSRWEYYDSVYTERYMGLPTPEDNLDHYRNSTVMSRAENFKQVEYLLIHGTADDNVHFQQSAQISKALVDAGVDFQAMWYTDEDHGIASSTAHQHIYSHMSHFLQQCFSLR

SMILES: NC(=O)CCC(N)C(=O)N1CCSC1 (centres unmarked) [Gln-Thia, glutaminyl thiazolidine]
- degradation of the compound in vivo [1]: degradation of the compound was found
- degradation product [1]: pyroglutaminyl thiazolidine
- IC50 [2]: > 3000 µM
- inhibition at 100 mg/kg (plasma DPIV activity; iv, intra-vasal (intra-arterial) route, read-out: in vivo DPIV-inhibition at tmax, i.v.): 88%
- inhibition at 100 mg/kg (plasma DPIV activity; oral, read-out: in vivo DPIV-inhibition at tmax, p.o.): 71%

SMILES: CC[C@H](C)[C@H](N)C(=O)N1CCSC1 [Isoleucyl thiazolidine fumarate]
- systolic blood pressure [3]: stabilization
- fasting blood glucose [4]: dramatic reduction and almost normalization
- blood pressure (F344 rats): dose-dependently reduced
- number of circulating half-lives equivalent to the 18 hours fasting period (Circulating half-life): ~12 circulating half-lives

SMILES: CCC(C)C(N)C(=O)N1CCSC1 (centres unmarked) [isoleucyl thiazolidine]
- EC50 (PepT1 [5]): 980 µM
- circulating glucose concentration after intraduodenal (i.d.) glucose (Wistar-rats; 0.1 mg per kg, versus untreated controls): more rapid reduction
- effect on circulating glucose after i.v. administration of the same amount of glucose (Wistar-rats; inhibitor-treated): no comparable effect
- Imax, inward currents generated by the transport (PepT1 [6]): 25 ± 8 nA
- suppression of the enzyme-catalyzed hydrolysis of GIP1-42 and GLP-17-36 [7]: complete suppression

— patent US20070207946A1, “Dipeptidyl peptidase IV inhibitors and their uses for lowering blood pressure levels” (priority 2001, published 2007)
